Experimental data taken from patent US8552048B2, “Phosphoramidate alkylator prodrugs for the treatment of cancer” (Threshold Pharmaceuticals, Inc., priority 2006, dated 2013).

Test: Interspecies scaling (complex Dedrick analysis)
Conditions: 70-kg human
Description: Pharmacokinetic studies were performed in male CD-1 (50 mg/kg i.p. or orally (p.o.)) or female nude mice (50 mg/kg i.v. or i.p.), male Sprague-Dawley rats (1, 5, 20 and 50 mg/kg i.v. and 100 mg/kg, p.o.), beagle dogs (20 mg/kg, i.v.) and cynomologus monkeys (20 mg/kg i.v.). Plasma TH302 concentrations were analyzed using a LC/MS method and the pharmacokinetic parameters computed using a noncompartmental method. Interspecies scaling was performed according to standard methods.
Parts A, B, and C, below tabulate the pharmacokinetics of TH302 when administered to rats, Dogs, and monkeys.

## Cn1c(COP(=O)(NCCBr)NCCBr)cnc1[N+](=O)[O-] [TH302]
  predicted Cl: 109 L/h
  predicted Vss: 493 L
